Reference: the supplement of paper PMC10307832

Columns and labels:
Test in all cases: relative viability (nuclei count vs DMSO), 5 days (fraction); higher = more cells survive
PAC-1 + Lapatinib = compound: C=CCc1cccc(/C=N/NC(=O)CN2CCN(Cc3ccccc3)CC2)c1O [PAC-1] + CS(=O)(=O)CCNCc1ccc(-c2ccc3ncnc(Nc4ccc(OCc5cccc(F)c5)c(Cl)c4)c3c2)o1 [Lapatinib] (partner 2 µM)
Outline: (§1)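 Five library-drug doses in √10 steps were combined with a fixed anchor-drug dose, or a single drug was given alone, by pin tool to lung cancer cell lines in 1536-well plates the day after seeding. Nuclei were stained and counted after 5 days. Relative viability is the nuclei count in treated wells over that in vehicle wells, taken as the median of duplicate plates.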

BMX-IN-1 + Crizotinib = compound: C=CC(=O)Nc1cc(-n2c(=O)ccc3cnc4ccc(-c5ccc(NS(C)(=O)=O)cc5)cc4c32)ccc1C [BMX-IN-1] + C[C@@H](Oc1cc(-c2cnn(C3CCNCC3)c2)cnc1N)c1c(Cl)ccc(F)c1Cl [Crizotinib] (partner 1 µM)
Outline: as §1

Ibrutinib + Phenformin = compound: C=CC(=O)N1CCC[C@@H](n2nc(-c3ccc(Oc4ccccc4)cc3)c3c(N)ncnc32)C1 [Ibrutinib] + N=C(N)NC(=N)NCCc1ccccc1 [Phenformin] (partner 250 µM)
Outline: as §1

BMX-IN-1 + Luminespib = compound: C=CC(=O)Nc1cc(-n2c(=O)ccc3cnc4ccc(-c5ccc(NS(C)(=O)=O)cc5)cc4c32)ccc1C [BMX-IN-1] + CCNC(=O)c1noc(-c2cc(C(C)C)c(O)cc2O)c1-c1ccc(CN2CCOCC2)cc1 [Luminespib] (partner 0.01 µM)
Outline: as §1

Cell Line | relative viability (PAC-1 + Lapatinib; first compound 0.02 µM) | relative viability (PAC-1 + Lapatinib; first compound 0.06325 µM) | relative viability (PAC-1 + Lapatinib; first compound 0.2 µM) | relative viability (PAC-1 + Lapatinib; first compound 2 µM) | relative viability (BMX-IN-1 + Crizotinib; first compound 0.02 µM) | relative viability (BMX-IN-1 + Crizotinib; first compound 0.2 µM) | relative viability (BMX-IN-1 + Crizotinib; first compound 0.6325 µM) | relative viability (BMX-IN-1 + Crizotinib; first compound 2 µM) | relative viability (Ibrutinib + Phenformin; first compound 0.01581 µM) | relative viability (Ibrutinib + Phenformin; first compound 0.05 µM) | relative viability (Ibrutinib + Phenformin; first compound 0.1581 µM) | relative viability (Ibrutinib + Phenformin; first compound 0.5 µM) | relative viability (BMX-IN-1 + Luminespib; first compound 0.02 µM) | relative viability (BMX-IN-1 + Luminespib; first compound 0.2 µM) | relative viability (BMX-IN-1 + Luminespib; first compound 0.6325 µM) | relative viability (BMX-IN-1 + Luminespib; first compound 2 µM) | relative viability (Ibrutinib + Phenformin; first compound 0.005 µM)
NCI-H596 | 1.04 | 1.03 | 1.01 | 1.05 | 1.13 | 1.18 | 1.03 | 0.827 | 0.635 | 0.704 | 0.607 | 0.635 | 0.917 | 1.02 | 1.02 | 1.01 | 
NCI-H647 | 0.851 | 1.05 | 0.866 | 0.934 | 1.41 | 1.45 | 1.1 | 0.937 | 0.467 | 0.411 | 0.592 | 0.605 | 0.242 | 0.294 | 0.179 | 0.379 | 
NCI-H650 | 1.09 | 1.05 | 0.668 | 0.747 | 0.881 | 0.863 | 0.707 | 0.774 | 0.456 | 0.372 | 0.492 | 0.493 | 0.789 | 0.831 | 0.914 | 0.773 | 0.457
NCI-H661 | 0.313 | 0.541 | 0.552 | 0.445 |  | 0.96 | 1.14 | 0.976 | 0.281 | 0.252 | 0.287 | 0.271 | 1 | 0.916 | 1.03 | 0.863 | 0.26
NCI-H727 | 0.717 | 0.674 | 0.801 | 0.884 | 1.15 | 1.12 | 1.01 | 0.846 | 0.612 | 0.546 |  | 0.401 | 0.33 | 0.366 | 0.343 | 0.243 | 
NCI-H838 | 0.931 | 0.968 | 0.83 | 1.01 | 1.14 | 0.983 | 0.834 | 0.877 | 0.491 | 0.581 | 0.519 | 0.537 | 0.245 | 0.291 | 0.302 | 0.294 | 0.492
NCI-H1355 | 0.97 | 0.977 | 0.929 | 1.11 | 1.27 | 1.17 | 1.08 | 1.13 | 0.463 | 0.485 | 0.469 | 0.427 | 0.75 | 0.724 | 0.699 | 0.711 | 0.419
NCI-H1437 | 0.758 | 0.828 | 0.751 | 0.679 | 1.3 | 1.01 | 1.1 | 1.07 | 0.3 | 0.318 | 0.317 | 0.314 | 1.41 | 1.23 | 1.15 | 1.16 | 0.352
NCI-H1563 | 0.967 | 0.91 | 1.07 | 1.01 | 0.794 | 0.887 | 0.86 | 0.761 | 0.668 | 0.652 | 0.65 | 0.657 | 0.549 | 0.461 | 0.523 | 0.521 | 0.695
NCI-H1650 | 0.749 | 0.875 | 0.675 | 0.668 | 1.15 | 1.11 | 1.03 | 0.918 | 0.358 | 0.353 | 0.348 | 0.287 | 0.205 | 0.198 | 0.221 | 0.203 | 0.403
NCI-H1651 | 0.757 | 0.8 | 0.725 | 0.855 | 0.976 | 1.01 | 0.907 | 0.862 | 0.262 | 0.295 | 0.308 | 0.252 | 1.12 | 0.911 | 1.05 | 0.773 | 0.34
NCI-H1666 | 0.613 | 0.608 | 0.911 | 0.663 | 1.08 | 0.98 | 1.05 | 0.906 | 0.59 | 0.547 | 0.561 | 0.571 | 1.05 | 1.08 | 1.04 | 1 | 0.597
NCI-H1734 | 1.12 | 0.987 | 1.04 | 1.01 | 0.797 | 0.807 | 0.794 | 0.703 | 0.349 | 0.419 | 0.355 | 0.381 | 0.199 | 0.213 | 0.202 | 0.147 | 0.338
NCI-H1755 | 0.987 | 1.03 | 1.02 | 1.05 | 1.01 | 1.07 | 0.958 | 0.843 | 0.624 | 0.65 | 0.627 | 0.665 | 0.525 | 0.387 | 0.502 | 0.597 | 0.667
NCI-H1792 | 0.978 | 0.91 | 0.923 | 0.934 | 0.886 | 1.7 | 0.855 | 0.977 | 0.449 |  | 0.206 | 0.171 | 0.428 | 0.31 | 0.427 | 0.46 | 
NCI-H1915 | 0.971 | 0.995 | 0.917 | 0.92 | 1.28 | 0.964 | 0.946 | 0.977 | 0.351 | 0.367 | 0.421 | 0.373 | 0.912 | 1.14 | 0.785 | 0.751 | 0.401
NCI-H1944 | 0.754 | 0.798 | 0.768 | 0.867 | 1.21 | 1.28 | 1.21 | 1.07 | 0.176 | 0.195 | 0.177 | 0.182 | 0.812 | 0.729 | 0.728 | 0.706 | 0.202
NCI-H1975 | 0.866 | 0.871 | 0.939 | 0.97 | 1.31 | 1.02 | 1.11 | 0.86 | 0.372 | 0.379 | 0.416 | 0.215 | 0.253 | 0.21 | 0.481 | 0.159 | 0.452
